# Data: PubChem BioAssay (NCI)
#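 48-hour exposure; five concentrations; linearly interpolated endpoints. The concentration for 50% growth inhibition is given as GI50. At the TGI there is no net growth.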
# Assays:
# Experiment in all cases: NCI anticancer screen, dose series, 48 h
# NCI/ADR-RES ovarian = tested on: NCI/ADR-RES ovarian
# ACHN renal = tested on: ACHN renal
# MOLT-4 leukemia = tested on: MOLT-4 leukemia
# UO-31 renal = tested on: UO-31 renal
# SW-620 colon = tested on: SW-620 colon
# COLO 205 colon = tested on: COLO 205 colon
# HOP-92 NSCLC = tested on: HOP-92 NSCLC
# HCT-15 colon = tested on: HCT-15 colon
# 786-0 renal = tested on: 786-0 renal
# SNB-19 CNS = tested on: SNB-19 CNS
# A549 NSCLC = tested on: A549 NSCLC
# HL-60(TB) leukemia = tested on: HL-60(TB) leukemia
# MDA-MB-231 breast = tested on: MDA-MB-231 breast
# T-47D breast = tested on: T-47D breast
# M14 melanoma = tested on: M14 melanoma
# SK-MEL-28 melanoma = tested on: SK-MEL-28 melanoma
# RXF 393 renal = tested on: RXF 393 renal
# HT29 colon = tested on: HT29 colon
# HOP-62 NSCLC = tested on: HOP-62 NSCLC
# OVCAR-4 ovarian = tested on: OVCAR-4 ovarian
# RPMI-8226 leukemia = tested on: RPMI-8226 leukemia
# IGROV1 ovarian = tested on: IGROV1 ovarian
# SF-539 CNS = tested on: SF-539 CNS
# K-562 leukemia = tested on: K-562 leukemia
# UACC-62 melanoma = tested on: UACC-62 melanoma
# NCI-H226 lung = tested on: NCI-H226 lung
# DU-145 prostate = tested on: DU-145 prostate
# BT-549 breast = tested on: BT-549 breast
# A498 renal = tested on: A498 renal
# SK-OV-3 ovarian = tested on: SK-OV-3 ovarian
# SF-268 CNS = tested on: SF-268 CNS
# OVCAR-3 ovarian = tested on: OVCAR-3 ovarian
# OVCAR-5 ovarian = tested on: OVCAR-5 ovarian
# EKVX NSCLC = tested on: EKVX NSCLC
# NCI-H23 lung = tested on: NCI-H23 lung
# UACC-257 melanoma = tested on: UACC-257 melanoma
# OVCAR-8 ovarian = tested on: OVCAR-8 ovarian
# SF-295 CNS = tested on: SF-295 CNS
# SNB-75 CNS = tested on: SNB-75 CNS
# SK-MEL-5 melanoma = tested on: SK-MEL-5 melanoma
# CCRF-CEM leukemia = tested on: CCRF-CEM leukemia
# NCI-H522 lung = tested on: NCI-H522 lung
# MCF7 breast = tested on: MCF7 breast
# U251 CNS = tested on: U251 CNS
# HCT-116 colon = tested on: HCT-116 colon
# CAKI-1 renal = tested on: CAKI-1 renal
# HS 578T breast = tested on: HS 578T breast
# KM12 colon = tested on: KM12 colon
# SN12C renal = tested on: SN12C renal
# SR leukemia = tested on: SR leukemia
# HCC-2998 colon = tested on: HCC-2998 colon
# NCI-H460 lung = tested on: NCI-H460 lung
# SK-MEL-2 melanoma = tested on: SK-MEL-2 melanoma
# LOX IMVI melanoma = tested on: LOX IMVI melanoma
smiles,measurement,setting,value
COc1cc(/C=C/C(=O)c2cc(OC)c(OC)c(OC)c2)ccc1Oc1nc2c(c(=O)n(C)c(=O)n2C)n1C,GI50,NCI/ADR-RES ovarian,2.96 µM
same,TGI,NCI/ADR-RES ovarian,> 100 µM
same,GI50,ACHN renal,2.93 µM
same,TGI,ACHN renal,8.06 µM
same,GI50,MOLT-4 leukemia,2.29 µM
same,TGI,MOLT-4 leukemia,6.34 µM
same,GI50,UO-31 renal,1.6 µM
same,TGI,UO-31 renal,3.1 µM
same,GI50,SW-620 colon,1.6 µM
same,TGI,SW-620 colon,3.46 µM
same,GI50,COLO 205 colon,1.91 µM
same,TGI,COLO 205 colon,3.62 µM
same,GI50,HOP-92 NSCLC,2.09 µM
same,TGI,HOP-92 NSCLC,5.84 µM
same,GI50,HCT-15 colon,2.56 µM
same,TGI,HCT-15 colon,> 100 µM
same,GI50,786-0 renal,1.63 µM
same,TGI,786-0 renal,3.26 µM
same,GI50,SNB-19 CNS,2.71 µM
same,TGI,SNB-19 CNS,13.5 µM
same,GI50,A549 NSCLC,2.2 µM
same,TGI,A549 NSCLC,6.52 µM
same,GI50,HL-60(TB) leukemia,2.17 µM
same,TGI,HL-60(TB) leukemia,5.32 µM
same,GI50,MDA-MB-231 breast,2.55 µM
same,TGI,MDA-MB-231 breast,20.3 µM
same,GI50,T-47D breast,4.39 µM
same,TGI,T-47D breast,65.4 µM
same,GI50,M14 melanoma,1.87 µM
same,TGI,M14 melanoma,4.55 µM
same,GI50,SK-MEL-28 melanoma,2.57 µM
same,TGI,SK-MEL-28 melanoma,7.03 µM
same,GI50,RXF 393 renal,2.03 µM
same,TGI,RXF 393 renal,3.65 µM
same,GI50,HT29 colon,1.87 µM
same,TGI,HT29 colon,3.9 µM
same,GI50,HOP-62 NSCLC,2.63 µM
same,TGI,HOP-62 NSCLC,5.89 µM
same,GI50,OVCAR-4 ovarian,2.49 µM
same,TGI,OVCAR-4 ovarian,> 100 µM
same,GI50,RPMI-8226 leukemia,1.2 µM
same,TGI,RPMI-8226 leukemia,4.91 µM
same,GI50,IGROV1 ovarian,2.5 µM
same,TGI,IGROV1 ovarian,5.35 µM
same,GI50,SF-539 CNS,2.73 µM
same,TGI,SF-539 CNS,7.74 µM
same,GI50,K-562 leukemia,2.29 µM
same,TGI,K-562 leukemia,8.23 µM
same,GI50,UACC-62 melanoma,1.81 µM
same,TGI,UACC-62 melanoma,3.61 µM
same,GI50,NCI-H226 lung,2.98 µM
same,TGI,NCI-H226 lung,8.43 µM
same,GI50,DU-145 prostate,3.92 µM
same,TGI,DU-145 prostate,15.5 µM
same,GI50,BT-549 breast,1.56 µM
same,TGI,BT-549 breast,3.02 µM
same,GI50,A498 renal,2.51 µM
same,TGI,A498 renal,10.2 µM
same,GI50,SK-OV-3 ovarian,3.73 µM
same,TGI,SK-OV-3 ovarian,35.5 µM
same,GI50,SF-268 CNS,3.29 µM
same,TGI,SF-268 CNS,10.2 µM
same,GI50,OVCAR-3 ovarian,2.37 µM
same,TGI,OVCAR-3 ovarian,4.88 µM
same,GI50,OVCAR-5 ovarian,2.9 µM
same,TGI,OVCAR-5 ovarian,7.41 µM
same,GI50,EKVX NSCLC,26.5 µM
same,TGI,EKVX NSCLC,> 100 µM
same,GI50,NCI-H23 lung,1.85 µM
same,TGI,NCI-H23 lung,4.27 µM
same,GI50,UACC-257 melanoma,2.05 µM
same,TGI,UACC-257 melanoma,4.63 µM
same,GI50,OVCAR-8 ovarian,1.73 µM
same,TGI,OVCAR-8 ovarian,5.2 µM
same,GI50,SF-295 CNS,2.65 µM
same,TGI,SF-295 CNS,13 µM
same,GI50,SNB-75 CNS,1.77 µM
same,TGI,SNB-75 CNS,7.81 µM
same,GI50,SK-MEL-5 melanoma,1.75 µM
same,TGI,SK-MEL-5 melanoma,3.33 µM
same,GI50,CCRF-CEM leukemia,1.97 µM
same,TGI,CCRF-CEM leukemia,6.48 µM
same,GI50,NCI-H522 lung,1.43 µM
same,TGI,NCI-H522 lung,2.81 µM
same,GI50,MCF7 breast,2.2 µM
same,TGI,MCF7 breast,27.6 µM
same,GI50,U251 CNS,1.28 µM
same,TGI,U251 CNS,2.6 µM
same,GI50,HCT-116 colon,0.684 µM
same,TGI,HCT-116 colon,2.06 µM
same,GI50,CAKI-1 renal,2.22 µM
same,TGI,CAKI-1 renal,7.92 µM
same,GI50,HS 578T breast,7.93 µM
same,TGI,HS 578T breast,> 100 µM
same,GI50,KM12 colon,1.62 µM
same,TGI,KM12 colon,3.16 µM
same,GI50,SN12C renal,2.24 µM
same,TGI,SN12C renal,7.79 µM
same,GI50,SR leukemia,1.21 µM
same,TGI,SR leukemia,4.89 µM
same,GI50,HCC-2998 colon,1.84 µM
same,TGI,HCC-2998 colon,3.35 µM
same,GI50,NCI-H460 lung,2.24 µM
same,TGI,NCI-H460 lung,6.37 µM
same,GI50,SK-MEL-2 melanoma,3.35 µM
same,TGI,SK-MEL-2 melanoma,7.78 µM
same,GI50,LOX IMVI melanoma,1.14 µM
same,TGI,LOX IMVI melanoma,2.64 µM
